From ChEMBL document CHEMBL5303304, “EUbOPEN Chemogenomics Library - IncuCyte” (2023)

Columns and labels:
Format in all cases: toxicity, cell-based
U2OS = assay: Incucyte cell viability with U2OS; details: human, 10 µM, compound concentration 10 uM
Fibroblast = assay: Incucyte cell viability with human fibroblast; details: 10 µM, compound concentration 10 uM
HEK-293T = assay: Incucyte cell viability with HEK293T; details: human, 10 µM, compound concentration 10 uM
Note: unitless GR value; below 1 slowed growth and below 0 cell loss.

| SMILES | Growth Rate (U2OS; 0 h, replicate number 2) | Growth Rate (U2OS; 6 h, replicate number 1) | Growth Rate (U2OS; 6 h, replicate number 2) | Growth Rate (U2OS; 12 h, replicate number 1) | Growth Rate (U2OS; 12 h, replicate number 2) | Growth Rate (U2OS; 18 h, replicate number 1) | Growth Rate (U2OS; 18 h, replicate number 2) | Growth Rate (U2OS; 24 h, replicate number 1) | Growth Rate (U2OS; 24 h, replicate number 2) | Growth Rate (Fibroblast; 0 h, replicate number 1) | Growth Rate (Fibroblast; 0 h, replicate number 2) | Growth Rate (Fibroblast; 6 h, replicate number 1) | Growth Rate (Fibroblast; 12 h, replicate number 2) | Growth Rate (Fibroblast; 18 h, replicate number 2) | Growth Rate (HEK-293T; 0 h, replicate number 1) | Growth Rate (HEK-293T; 0 h, replicate number 2) | Growth Rate (HEK-293T; 6 h, replicate number 1) | Growth Rate (HEK-293T; 6 h, replicate number 2) | Growth Rate (HEK-293T; 12 h, replicate number 2) | Growth Rate (HEK-293T; 18 h, replicate number 1) | further results |
| --- | --- | --- | --- | --- | --- | --- | --- | --- | --- | --- | --- | --- | --- | --- | --- | --- | --- | --- | --- | --- | --- |
| O=C1NCCc2c(OCCCCN3CCCCC3)cccc21 | -0.98 | 0.02 | 0.34 | 0.56 | 0.86 | 0.79 | 0.88 | 0.79 | 0.83 | 0.29 | -0.96 | 0.19 | 0.64 | 0.79 | 0.6 | 0.67 | 0.81 | – | – | – | Growth Rate (Fibroblast; 12 h, replicate number 1): -0.5; Growth Rate (Fibroblast; 24 h, replicate number 2): 0.76 |
| Cn1c(SCc2ccc(C(C)(C)C)cc2)nc(N)cc1=O | -0.65 | 0.7 | – | 0.86 | 0.66 | 0.62 | 0.71 | 0.78 | 0.68 | 0.97 | -1 | -0.69 | – | – | 0.71 | – | -0.1 | -0.24 | 0.05 | 0.15 | Growth Rate (HEK-293T; 12 h, replicate number 1): -0.03; Growth Rate (HEK-293T; 18 h, replicate number 2): 0.19; Growth Rate (HEK-293T; 24 h, replicate number 1): 0.2; Growth Rate (HEK-293T; 24 h, replicate number 2): 0.23 |
| O=C(Nc1ccc(S(=O)(=O)Nc2nccs2)cc1)C(c1ccccc1)c1ccccc1 | – | – | – | 0.81 | 0.82 | – | – | 0.94 | – | – | -0.85 | – | 0.85 | – | 0.71 | – | 0.94 | 0.52 | – | – | Growth Rate (Fibroblast; 18 h, replicate number 1): 0.49; Growth Rate (HEK-293T; 18 h, replicate number 2): 0.82; Growth Rate (HEK-293T; 24 h, replicate number 1): 0.88; Growth Rate (HEK-293T; 24 h, replicate number 2): 0.9 |
| FC(F)(F)Oc1ccc(-c2ccc3nnc(C(F)(F)F)n3c2)cc1 | – | 0.08 | 0.81 | 0.82 | 0.64 | 0.74 | 0.92 | 0.91 | 0.96 | – | – | -0.05 | 0.76 | 0.75 | 0.83 | 0.64 | 0.53 | – | – | 1 | Growth Rate (Fibroblast; 6 h, replicate number 2): -1; Growth Rate (Fibroblast; 12 h, replicate number 1): -1; Growth Rate (Fibroblast; 18 h, replicate number 1): 0.42; Growth Rate (Fibroblast; 24 h, replicate number 2): 0.91 |
| COc1ccc(-n2nc3c4ccccc4[nH]cc-3c2=O)cc1 | -0.98 | 0.7 | – | 0.89 | – | – | – | – | – | – | 0.74 | -0.1 | 0.81 | 0.91 | 0.6 | – | – | 0.53 | 1 | – | Growth Rate (U2OS; 0 h, replicate number 1): -0.37 |
| Cl.Clc1ccc(OC[C@H]2CCN2)cn1 | – | -0.1 | 0.54 | 0.58 | – | 0.72 | 0.97 | 0.76 | 0.97 | – | – | -0.66 | 0.34 | 0.83 | 0.45 | – | 0.64 | 0.93 | 0.94 | 0.8 | Growth Rate (U2OS; 0 h, replicate number 1): -0.28; Growth Rate (Fibroblast; 6 h, replicate number 2): -0.05; Growth Rate (HEK-293T; 24 h, replicate number 1): 0.83 |
| Cl.c1ccc2c(c1)CCC[C@H]2Nc1nc2ccccc2[nH]1 | – | – | 0.97 | – | – | 0.9 | 0.95 | 0.98 | – | 0.94 | 0.4 | – | 0.56 | 0.87 | 0.86 | 0.46 | 0.77 | – | – | – | Growth Rate (U2OS; 0 h, replicate number 1): 0.01; Growth Rate (Fibroblast; 18 h, replicate number 1): 0.44; Growth Rate (Fibroblast; 24 h, replicate number 1): 0.48 |
